Laboratory results: patent US20090131416A1, “SUBSTITUTED PYRAZINYL AMIDE COMPOUNDS AS MODULATORS OF THE HISTAMINE H3 RECEPTOR” (priority 2007, published 2009)

Assays:
rat H3 receptor = biological target: T1, rat H3 receptor (Rattus norvegicus, UniProt Q9QYN8); experiment: Cyclic AMP Accumulation (rat H3); assay type: cell-based; settings: SK-N-MC cells expressing reporter construct and rat H3 receptor; read-out: Rat pA2 (converted)
T1 construct: expressed in transfected cells; host or cells: SK-N-MC cell sublines
T1 sequence (Q9QYN8 whole entry): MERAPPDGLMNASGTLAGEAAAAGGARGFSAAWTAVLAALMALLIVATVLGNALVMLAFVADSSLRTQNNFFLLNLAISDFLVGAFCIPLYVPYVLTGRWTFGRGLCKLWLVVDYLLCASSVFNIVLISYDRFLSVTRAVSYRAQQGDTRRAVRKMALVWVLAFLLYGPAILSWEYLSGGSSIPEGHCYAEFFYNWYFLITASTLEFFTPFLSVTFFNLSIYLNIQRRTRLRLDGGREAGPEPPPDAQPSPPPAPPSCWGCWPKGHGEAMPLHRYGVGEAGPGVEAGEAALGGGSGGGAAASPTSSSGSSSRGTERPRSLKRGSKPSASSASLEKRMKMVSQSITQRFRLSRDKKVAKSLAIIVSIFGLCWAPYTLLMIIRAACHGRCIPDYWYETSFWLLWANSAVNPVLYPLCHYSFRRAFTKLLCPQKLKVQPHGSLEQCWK
Text: (§1) Sublines of SK-N-MC cells were created that expressed a reporter construct and either the human or rat H3 receptor. The pA2 values were obtained as described by Barbier et al. (2004).

human H3 receptor = biological target: T2, human H3 receptor (Homo sapiens, UniProt Q9Y5N1); experiment: Cyclic AMP Accumulation (human H3); assay type: cell-based; settings: SK-N-MC cells expressing reporter construct and human H3 receptor; read-out: Human pA2 (converted)
T2 construct: expressed in transfected cells; host or cells: SK-N-MC cell sublines
T2 sequence (Q9Y5N1 whole entry): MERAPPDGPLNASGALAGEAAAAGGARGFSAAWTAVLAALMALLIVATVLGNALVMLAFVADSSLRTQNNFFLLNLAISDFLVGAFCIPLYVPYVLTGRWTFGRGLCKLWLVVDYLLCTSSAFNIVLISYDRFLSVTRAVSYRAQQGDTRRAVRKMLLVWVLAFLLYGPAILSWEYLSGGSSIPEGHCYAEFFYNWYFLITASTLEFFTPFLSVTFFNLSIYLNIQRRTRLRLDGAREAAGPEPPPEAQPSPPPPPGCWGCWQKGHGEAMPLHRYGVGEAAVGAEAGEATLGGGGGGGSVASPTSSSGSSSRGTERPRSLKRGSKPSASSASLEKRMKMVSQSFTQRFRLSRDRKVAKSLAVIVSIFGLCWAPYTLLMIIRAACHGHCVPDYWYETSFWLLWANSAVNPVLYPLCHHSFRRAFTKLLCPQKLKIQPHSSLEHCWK
Text: as §1

[1] = biological target: T3, cloned human H3 receptors (Homo sapiens, UniProt Q9Y5N1); experiment: H3 Receptor Binding (Human); settings: cloned human H3 receptors stably expressed in SK-N-MC cells; average of results
T3 construct: expressed in transfected cells; host or cells: SK-N-MC cells
T3 sequence (Q9Y5N1 whole entry): as above
Experimental: Binding of compounds to the cloned human H3 receptors, stably expressed in SK-N-MC cells, was performed as described by Barbier, A. J. et al. (Br. J. Pharmacol. 2004, 143(5), 649-661). Data for compounds tested in this assay are presented in Table 1, as an average of results obtained.

[2] = biological target: T4, rat H3 receptor (rat brain membranes) (Rattus norvegicus, UniProt Q9QYN8); experiment: H3 Receptor Binding (Rat); settings: rat brain membranes without cerebellum; 0.8 nM N-[3H]-α-methylhistamine; 60 min at 25° C.
T4 construct: A rat brain without cerebellum (Zivic Laboratories Inc., Pittsburgh, Pa.) was homogenized; tissue Zivic Laboratories Inc; host or cells: rat brain without cerebellum, membranes
T4 sequence (Q9QYN8 whole entry): as the sequence (Q9QYN8 whole entry) above
Experimental: A rat brain without cerebellum (Zivic Laboratories Inc., Pittsburgh, Pa.) was homogenized in 50 mM Tris-HCl/5 mM EDTA and centrifuged at 1,000 rpm for 5 min. The supernatant was removed and recentrifuged at 15,000 rpm for 30 min. Pellets were rehomogenized in 50 mM Tris/5 mM EDTA (pH 7.4). Membranes were incubated with 0.8 nM N-[^3H]-α-methylhistamine plus/minus test compounds for 60 min at 25° C. and harvested by rapid filtration over GF/C glass fiber filters (pretreated with 0.3% polyethylenimine) followed by four washes with buffer. Nonspecific binding was defined in the presence of 100 μM histamine. Inhibitory concentration (responsible for 50% inhibition of maximal effect, IC50) values were determined by a single site curve-fitting program (GraphPad, San Diego, Calif.) and converted to Ki values based on a N-[^3H]-α-methylhistamine dissociation constant (Kd) of 0.8 nM. The following results were obtained: Example 2, 34 nM; Example 3, 33 nM; Example 4,18 nM; Example 5, 9.2 nM.

| Kb (rat H3 receptor) | Kb (human H3 receptor) | Ki [1] | Ki [2] | Structure (SMILES) |
| --- | --- | --- | --- | --- |
| 13.5 nM | 0.871 nM | 2.4 nM |  | O=C(c1cnc(Oc2ccc(F)cc2)cn1)N1CCCN(C2CCC2)CC1 [Example 1, (4-Cyclobutyl-[1,4]diazepan-1-yl)-[5-(4-fluoro-phenoxy)-pyrazin-2-yl]-methanone] |
|  |  | 2.9 nM | 34 nM | O=C(c1cnc(Oc2ccccc2)cn1)N1CCCN(C2CCC2)CC1 [Example 2, (4-Cyclobutyl-[1,4]diazepan-1-yl)-(5-phenoxy-pyrazin-2-yl)-methanone] |
| 12.6 nM | 1.2 nM | 3.7 nM | 33 nM | O=C(c1cnc(Oc2ccc(Cl)cc2)cn1)N1CCCN(C2CCC2)CC1 [Example 3, [5-(4-Chloro-phenoxy)-pyrazin-2-yl]-(4-cyclobutyl-[1,4]diazepan-1-yl)-methanone] |
| 6.92 nM | 0.537 nM | 2.6 nM | 18 nM | O=C(c1cnc(Oc2cccc(F)c2)cn1)N1CCCN(C2CCC2)CC1 [Example 4, (4-Cyclobutyl-[1,4]diazepan-1-yl)-[5-(3-fluoro-phenoxy)-pyrazin-2-yl]-methanone] |
|  |  | 1.5 nM | 9.2 nM | N#Cc1cccc(Oc2cnc(C(=O)N3CCCN(C4CCC4)CC3)cn2)c1 [Example 5, 3-[5-(4-Cyclobutyl-[1,4]diazepane-1-carbonyl)-pyrazin-2-yloxy]-benzonitrile] |
|  |  | 19 nM |  | O=C(c1cnc(Oc2ccc(F)cc2)cn1)N1CCN(C2CCC2)CC1 [Example 6, (4-Cyclobutyl-piperazin-1-yl)-[5-(4-fluoro-phenoxy)-pyrazin-2-yl]-methanone] |
|  |  | 36 nM |  | O=C(c1cnc(Oc2ccccc2)cn1)N1CCN(C2CCC2)CC1 [Example 7, (4-Cyclobutyl-piperazin-1-yl)-(5-phenoxy-pyrazin-2-yl)-methanone] |
|  |  | 38 nM |  | O=C(c1cnc(Oc2ccc(Cl)cc2)cn1)N1CCN(C2CCC2)CC1 [Example 8, [5-(4-Chloro-phenoxy)-pyrazin-2-yl]-(4-cyclobutyl-piperazin-1-yl)-methanone] |
|  |  | 37 nM |  | O=C(c1cnc(Oc2cccc(F)c2)cn1)N1CCN(C2CCC2)CC1 [Example 9, (4-Cyclobutyl-piperazin-1-yl)-[5-(3-fluoro-phenoxy)-pyrazin-2-yl]-methanone] |
|  |  | 28 nM |  | N#Cc1cccc(Oc2cnc(C(=O)N3CCN(C4CCC4)CC3)cn2)c1 [Example 10, 3-[5-(4-Cyclobutyl-piperazine-1-carbonyl)-pyrazin-2-yloxy]-benzonitrile] |
| 9.55 nM | 0.525 nM | 3.2 nM |  | O=C(c1cnc(OC2CCCCC2)cn1)N1CCCN(C2CCC2)CC1 [Example 11, (4-Cyclobutyl-[1,4]diazepan-1-yl)-(5-cyclohexyloxy-pyrazin-2-yl)-methanone] |
|  |  | 51 nM |  | O=C(c1cnc(OC2CCCCC2)cn1)N1CCN(C2CCC2)CC1 [Example 12, (4-Cyclobutyl-piperazin-1-yl)-(5-cyclohexyloxy-pyrazin-2-yl)-methanone] |
